Consider one molecule from paper PMC10252837, “A Novel Time-Resolved Fluorescence Resonance Energy Transfer Assay for the Discovery of Small-Molecule Inhibitors of HIV-1 Tat-Regulated Transcription” (International Journal of Molecular Sciences, 2023).

One series concerns the target TAR RNA. Description: RNA gel mobility shift assay (biotinylated TAR RNA and ARM peptide). In kind it is binding, HIV-1. The following applies: 2 nM biotinylated TAR RNA, 100 nM ARM peptide. Here is the method: To determine the inhibitory effect of hit compounds on the Tat (ARM)-TAR RNA interaction, a gel shift assay was carried out using the LightShift Chemiluminescent RNA EMSA Kit (Thermo Scientific) according to the manufacturer’s instructions, but with minor modifications suitable for our experiment. Briefly, 2 nM of 5′-biotinylated TAR RNA (nt 31) and 100 nM of ARM peptide were incubated with increasing amounts of hit compounds in the 1× REMSA binding buffer (10 mM HEPES pH 7.5, 10 mM MgCl2, 5 mM KCl, 1 mM DTT, and v/v 5 % glycerol) supplemented with 8 units/reaction of RNase OUT (Invitrogen) (final: 20 µL) at 20 °C for 20 min. Subsequently, the reaction was separated on a 3–12% native gradient PAGE gel. The RNA was then transferred to a nylon membrane to detect the mobility-shifted biotinylated TAR RNA using StAV-horseradish peroxidase conjugate. Chemiluminescence was detected using a GBox Chemi chemi-luminometer (Syngene, Fredrick, MD, USA).

A further series deals with HIV-1AD8 (R5-tropic). In words: HIV-1 replication assay in PBMCs (p24), HIV-1AD8. In kind it is cell-based. Conditions: PHA-preactivated PBMCs, MOI 0.1, 72 h; 460-G06 at 12.5-100 nM. The method, then: (§1) Figure 6 Phytohemagglutinin-preactivated peripheral blood mononuclear cells were infected with HIV-1NL4-3 (A) or HIV-1AD8 (B) at an MOI of 0.1 for 2 h and then treated with compounds at indicated concentrations for 72 h. […] The data are expressed as the mean ± SD (n = 3). * p < 0.05 indicates a comparison with the cells treated with DMSO (vehicle). ARVs, anti-retroviral drugs; EFV, efavirenz; DOL, dolutegravir; AZT, azidothymidine.
(§2) The experiments were performed in triplicate.

The nature of another series: in vitro. Conditions: human. The method, then: (§3) (A) (Upper panel) Doxycycline (Dox)-inducible Tat-expressing bl-DTR cells cultured in 96-well plates treated with two-fold serial dilutions of each compound in the presence of Dox (50 ng/mL). At 24 h after treatment, the activity of firefly luciferase (F-Luc), indicating Tat activity, was determined as described in the Materials and Methods section. (Bottom panel) TZM-bl cells were treated with two-fold serial dilutions of the indicated compound and then infected with the HIV-1NL4-3 strain at a multiplicity of infection (MOI) of 1. At 24 h after infection, the viral infectivity and cell viability were determined as described in the Materials and Methods section. […] (B) 2 × 10^5 TZM-bl cells growing in 6-well plates were infected with HIV-1 (MOI = 1), transfected with a Tat-expressing plasmid (2 μg) or treated with PMA ([…]) upon indicated compounds at indicated concentrations, respectively. At 24 h after treatment, LTR promoter activity was determined via a Bright-Glo Luciferase Assay Kit. The relative activities are represented as the mean ± SD (n = 3) compared with the DMSO vesicle. (C) The biotinylated TAR RNA (2 nM) was incubated with ARM peptide (100 nM) in the presence of increasing amounts of the hit compound and separated on a 3–12% native polyacrylamide gel. The mobility of biotinylated TAR RNA was detected by chemiluminescence.
(§4) To determine the inhibitory effect of hit compounds on HIV-1 infection, we used TZM-bl cells (also referred to as JC53BL-13), which express HIV-1 receptors and contain the LTR-driven F-Luc gene controlled by HIV-1 infection, as described previously but with some minor modifications. Briefly, 1 × 10^4 TZM-bl cells cultured on 96-well plates were treated in triplicate wells with 1:2 serially diluted compounds at concentrations ranging from 0 to 12.5 µM. […] At 24 h after infection, the inhibitory effect of the hit compounds on infectivity was determined using the Bright-Glo Luciferase Assay Kit (Promega). The dose–response data are expressed as a relative percentage compared to the DMSO control (vehicle). The inhibitory effects of the hit compounds on HIV-1 replication were determined as previously described. […] After infection, the cells were treated with hit compounds at the indicated concentrations at 3–5 days after treatment, and the inhibitory effect of hit compounds on viral replication was determined by the titration of virions from the cell supernatant using a p24 […]™ Assay Kit (PerkinElmer) according to the manufacturer’s instructions. Cell viability was determined using resazurin-based PrestoBlue™ cell viability reagent (Thermo Fisher Scientific, Waltham, MA, USA) according to the manufacturer’s instructions. […]

The subject of the next series is TZM-bl cells. In words: in vitro. Conditions: human, 24 h. Here is the method:
as §3, §4

The subject of the next series is HIV-1NL4-3. In words: HIV-1 infectivity in TZM-bl cells (LTR-driven F-Luc). The format is cell-based. The following applies: Human immunodeficiency virus 1, TZM-bl, 24 h, read-out: IC50 of Infectivity. The method, then:
as §3
To determine the inhibitory effect of hit compounds on HIV-1 infection, we used TZM-bl cells (also referred to as JC53BL-13), which express HIV-1 receptors and contain the LTR-driven F-Luc gene controlled by HIV-1 infection, as described previously but with some minor modifications. Briefly, 1 × 10^4 TZM-bl cells cultured on 96-well plates were treated in triplicate wells with 1:2 serially diluted compounds at concentrations ranging from 0 to 12.5 µM. Subsequently, the cells were infected with HIV-1NL4-3 virus obtained from the transfection of 293T cells at a multiplicity of infection (MOI) of 1. At 24 h after infection, the inhibitory effect of the hit compounds on infectivity was determined using the Bright-Glo Luciferase Assay Kit (Promega). The dose–response data are expressed as a relative percentage compared to the DMSO control (vehicle). The inhibitory effects of the hit compounds on HIV-1 replication were determined as previously described. Briefly, 4 × 10^5 PBMCs pre-activated with phytohemagglutinin M (PHA-M) were washed with fresh media and then infected with HIV-1NL4-3 or HIV-1AD8 at an MOI of 0.1 by spinoculation for 2 h. After infection, the cells were treated with hit compounds at the indicated concentrations at 3–5 days after treatment, and the inhibitory effect of hit compounds on viral replication was determined by the titration of virions from the cell supernatant using a p24 […]™ Assay Kit (PerkinElmer) according to the manufacturer’s instructions. Cell viability was determined using resazurin-based PrestoBlue™ cell viability reagent (Thermo Fisher Scientific, Waltham, MA, USA) according to the manufacturer’s instructions. The data are presented as relative percentages compared to the DMSO control (vehicle). The experiments were performed in triplicate.

In a further series the test system is HIV-1NL4-3 (X4-tropic). Description: HIV-1 replication assay in PBMCs (p24), HIV-1NL4-3. The format is cell-based. The following applies: PHA-preactivated PBMCs, MOI 0.1, 72 h; 460-G06 at 12.5-100 nM. Here is the method: as §1, §2
For series [1], the system named is Tat activity (Tat-induced viral transcription). Description: microbe, parasite or virus in culture. In kind it is cell-based, HIV-1. Here is the method: as §3
The inhibitory effect of hit compounds on Tat-mediated transcription was determined using doxycycline (Dox)-inducible Tat-expressing TZM-bl cells that express the LTR-driven firefly luciferase (F-Luc) gene under the control of Tat upon Dox treatment, as described previously but with minor modifications. In brief, 1 × 10^4 of the cells were cultured in 96-well plates, treated with compounds at a concentration of 10 µM (in the second round of screening), and then treated with Dox (final concentration: 50 ng/mL). After 24 h, the inhibitory effect of the hit compounds on Tat activity was determined by measuring F-Luc activity using a Bright-Glo Luciferase Assay Kit (Promega, Madison, WI, USA). For the dose–response assay, cells cultured in 100 μL medium were treated with 50 μL of 1:2 serially diluted compounds at concentrations ranging from 0 to 12.5 µM and then treated with 50 μL of Dox (final concentration: 50 ng/mL). At 24 h post-treatment, the F-Luc activity was determined as described above. All luminescence assays were carried out in a SpectraMax Paradigm Microplate Reader (Molecular Devices, San Jose, CA, USA), and the data were expressed as a relative percentage (%) compared to the DMSO control (vehicle) in the presence of Dox. The experiments were performed in triplicate.

The subject of series [2] is peripheral blood mononuclear cells. Description: Cell viability in PBMCs (PrestoBlue). The format is cell-based. Conditions: primary PBMCs, 72 h. Here is the method: as §1, §2

By Kd is commonly meant the equilibrium constant for the complex coming apart. As a reminder, the IC50 is the concentration that inhibits the measured activity by half.

“Also recorded” adds a separate entry of the source.

Consider `CN1C/C=C/CCOc2cccc(c2)-c2ccnc(n2)Nc2cccc(c2)C1` [Hit 460-G06, (E)-6-methyl-12-oxa-3,6-diaza-2(4,2)-pyrimidine-1,4(1,3)-dibenzenacyclododecaphan-8-ene], for which, at TAR RNA, the Kd is 132000 nM. The “dissociation of ARM from TAR RNA, in words” value with TAR RNA is “directly bound to the TAR RNA and efficiently dissociated the ARM from TAR RNA”. The “inhibition of viral replication, in words” value with HIV-1AD8 (R5-tropic) and in the series with HIV-1NL4-3 (X4-tropic) was “inhibited viral replication in a dose-dependent manner” throughout. The molecule also displayed a CC50 at 24 h in the series “in vitro” of 4940 ± 440 nM. The “concentration at which cytotoxicity is indicated” value with TZM-bl cells is on record as “over 0.1 μM”. Moreover, the IC50 stood at 13 ± 3 nM with HIV-1NL4-3 and 11 ± 1 nM in series [1] (Human immunodeficiency virus 1, 24 h, read-out: IC50 of Tat Activity). Further, the “dose response of Tat activity (F-Luc), in words” value in series [1] (0-12.5 μM, bl-DTR cells) is listed as “gradual inhibition of F-Luc activity”. In series [2], the “cell viability / cytotoxicity in PBMCs, in words” value is recorded as “without a severe decrease in cell viability; also recorded: such cytotoxicity was not observed”.
